Laboratory results reported in patent US6054258A, “Photographic elements containing high-boiling esters” (Eastman Kodak Company, priority 1998, dated 2000).
Converted amounts (≈) assume the structure as drawn.

What was measured:
Format in all cases: physicochemical
[1] = Water solubility from light scattering at 500 nm of dispersions of the high-boiling solvent in water
Description: (§1) As noted earlier, high-boiling solvents are desired that have low water solubility and low-to-moderate viscosity and that provide suitably bathochromic dye hues, i.e. hues of suitably long wavelengths. In this example, these properties are evaluated for comparison high-boiling solvents known in the art and for high-boiling solvents of this invention.
Water solubilities were obtained from plots of light scattering at 500 nm of dispersions of the high-boiling solvent in water versus concentration. The light scattering density goes to zero at the solubility limit, when dispersions of high-boiling solvent are diluted. […] Viscosities reported in Table I were measured using a Brookfield cone/plate viscometer. Solvents of high polarity and/or polarizability are often needed to provide suitably bathochromic hues for the types of dyes commonly encountered in color photographic materials. Dye C1, whose structure is provided after Table I, is representative of such dyes. The visible absorption maxima (Lambda max) values for C1, measured with a Perkin Elmer Lambda 2S spectrophotometer, are provided in Table I as measure of solvent polarity/polarizability.

[2] = Viscosity measured using a Brookfield cone/plate viscometer
Description: as §1, with “invention. Results are summarized in Table I. Structures of the comparative high-boiling solvents are provided after Table I.” for “invention.”
(§2) Water solubilities were obtained from plots of light scattering at 500 nm of dispersions of the high-boiling solvent in water versus concentration. The light scattering density goes to zero at the solubility limit, when dispersions of high-boiling solvent are diluted. Values of log P calculated using MEDCHEM version 3.54 are also given in Table I and serve as rough indicators of water solubility. Viscosities reported in Table I were measured using a Brookfield cone/plate viscometer. Solvents of high polarity and/or polarizability are often needed to provide suitably bathochromic hues for the types of dyes commonly encountered in color photographic materials. Dye C1, whose structure is provided after Table I, is representative of such dyes. The visible absorption maxima (Lambda max) values for C1, measured with a Perkin Elmer Lambda 2S spectrophotometer, are provided in Table I as measure of solvent polarity/polarizability.

[3] = Visible absorption maximum (Lambda max) of Dye C1 in the solvent, measure of solvent polarity/polarizability; conditions: for Lambda max of Dye C1: Dye C1 in the high-boiling solvent, Perkin Elmer Lambda 2S spectrophotometer; for Lambda max of Dye C1 (in words): relative to B1 and B4; for polarity/polarizability (in words): relative to B1
Description: as §1, with “invention. Results are summarized in Table I. Structures of the comparative high-boiling solvents are provided after Table I.” for “invention.”
as §2

SMILES | solubility [1] [µg/mL] | Viscosity [2] [centipoise] | Lambda max of Dye C1 [3] [nm] | Lambda max of Dye C1 (in words) [3] | polarity/polarizability (in words) [3]
O=C(OCCCc1ccccc1)c1ccccc1 [A1] | 5.5 (≈ 22.9 µM) | 15 | 673 | relatively close to those of B1 and B4 | –
CC(C)(COC(=O)c1ccccc1)Cc1ccccc1 [A2] | – | 99 | 668 | relatively close to those of B1 and B4 | –
O=C(OCCc1ccccc1)c1ccccc1 [B4] | 10 (≈ 44.2 µM) | 14 | 674 | – | –
CCCCOC(=O)c1ccccc1C(=O)OCCCC [B1, dibutyl phthalate] | 9.4 (≈ 33.8 µM) | 17 | 674 | – | –
Cc1ccc(C(=O)OCCCc2ccccc2)cc1 [A3] | 3.5 (≈ 13.8 µM) | 22 | 670 | relatively close to those of B1 and B4 | –
CCCCC(CC)COC(=O)C1CCCCC1 (stereo not drawn) [B3] | – | 6 | 661 | – | reduced polarity/polarizability relative to B1
CCCCOC(=O)CCCCCCCCC(=O)OCCCC [B2] | 0.8 (≈ 2.54 µM) | 9 | 658 | – | reduced polarity/polarizability relative to B1
